Test results as given in ChEMBL document CHEMBL4184130, “Zamamidine D, a Manzamine Alkaloid from an Okinawan Amphimedon sp. Marine Sponge” (J Nat Prod, 2017).
Converted amounts (≈) assume the structure as drawn.

Tests used:
Aspergillus niger = assay: Antimicrobial activity against Aspergillus niger IFM62678 incubated for 72 hrs; format: functional, organism-based; details: IFM62678, 72 h
[1] = tested on: Trichophyton mentagrophytes; assay: Antimicrobial activity against Trichophyton mentagrophytes IFM62679 incubated for 72 hrs; format: functional, organism-based; details: IFM62679, 72 h
Staphylococcus aureus = assay: Antimicrobial activity against Staphylococcus aureus 209P incubated for 72 hrs; format: functional
Candida albicans = assay: Antimicrobial activity against Candida albicans IFM62680 incubated for 72 hrs; format: functional, organism-based; details: IFM62680, 72 h
Cryptococcus neoformans = assay: Antimicrobial activity against Cryptococcus neoformans IFM62681 incubated for 72 hrs; format: functional, organism-based; details: IFM62681, 72 h
Escherichia coli = assay: Antimicrobial activity against Escherichia coli ATCC 25922 incubated for 72 hrs; format: functional; details: ATCC 25922, 72 h
Bacillus subtilis = assay: Antimicrobial activity against Bacillus subtilis PC1219 incubated for 72 hrs; format: functional; details: PC1219, 72 h
Micrococcus luteus = assay: Antimicrobial activity against Micrococcus luteus IFM2066 incubated for 72 hrs; format: functional; details: IFM2066, 72 h

IC50 (Aspergillus niger): 16 µg/mL (≈ 22.4 µM)
IC50 [1]: 8 µg/mL (≈ 11.2 µM)
MIC (Staphylococcus aureus): 8 µg/mL (≈ 11.2 µM)
IC50 (Candida albicans): 16 µg/mL (≈ 22.4 µM)
IC50 (Cryptococcus neoformans): 2 µg/mL (≈ 2.8 µM)
MIC (Escherichia coli): 32 µg/mL (≈ 44.9 µM)
MIC (Bacillus subtilis): 8 µg/mL (≈ 11.2 µM)
MIC (Micrococcus luteus): 8 µg/mL (≈ 11.2 µM)
SMILES: NCCc1c(C(C2=C[C@@]3(O)CC/C=C\CCCCN4CC[C@@H]2[C@]2(C[C@@H]5/C=C\CCCCN5[C@H]23)C4)c2[nH]c3ccccc3c2CCN)[nH]c2ccccc12
